This note sets out measurements from paper PMC5342071, “A first generation inhibitor of human Greatwall kinase, enabled by structural and functional characterisation of a minimal kinase domain construct” (Oncotarget, 2016).

Holding throughout (assay type): biochemical
The target of one test is T1, PKA (Homo sapiens, UniProt P17612).
T1 construct: purchased Promega
The test is described as follows: PKA kinase assay (Promega). As to conditions: for IC50: ± S.D. The protocol: (§1) hGWLFL, 100 µl of lysate was diluted 5-fold with IP buffer and combined with 3 µl anti-Flag M2 magnetic Dynabeads [Sigma-Aldrich] overnight at 4 °C. After sequential washes with IP buffer, 1:1 mix of IP and kinase assay buffers and a final wash in kinase assay buffer, the beads were then used in the kinase assay. The reaction was stopped by adding SDS loading buffer and analysed by western blot: p-ENSA and GWL levels were detected using the anti-phospho(Ser67)-ENSA and anti-MASTL(GWL, Prestige) antibodies. Activity was measured as the p-ENSA/GWL ratio and % kinase activity was normalised to the DMSO control. All kinases assays were repeated thrice per assay condition and each point on the concentration-dependent response curves represents the mean ± 1 S.D.
(§2) PKA, ROCK1 and CDK2 kinase assays […]
(§3) Data were normalised against the AllStars negative control siRNA treated cells and values obtained from 3 – 5 biological replicates were reported as the mean ± 1 S.D.

A further test has as its target T2, ROCK1 (Homo sapiens, UniProt Q13464).
T2 construct: purchased Promega
The test is described as follows: ROCK1 kinase assay (Promega). The following applies: for IC50: ± S.D. The procedure: as §1, §2, §3

A further test has as its target T3, hGWL-KinDom (Homo sapiens, UniProt Q96GX5).
T3 construct: that encoded amino acids (aa) 1-194 + ‘RTFC’ + 740-879 of hGWL; GST (rhinovirus 3C-protease cleavable) (N, cleaved yes); made in house; host or cells: E. coli Rosetta2(DE3)
Put plainly: Inhibitor screen of pooled library with hGWL-KinDom (Kinase-Glo Max). As to conditions: for inhibition at 10 µM: 10 μM screening concentration, ATP concentration = 45 μM; for Rank in inhibitor screen: rank by potency in the screen. The protocol:
Two small-molecule compound libraries, enriched with pharmacophores known to interact with the ATP-binding site of protein kinases, were screened as a pooled library in a Kinase-GloMax luminescence-kinase assay. page 4: […] Dynabeads [Sigma-Aldrich] overnight at 4 °C. After sequential washes with IP buffer, 1:1 mix of IP and kinase assay buffers and a final wash in kinase assay buffer, the beads were then used in the kinase assay. The reaction was stopped by adding SDS loading buffer and analysed by western blot: p-ENSA and GWL levels were detected using the anti-phospho([…] and […], Prestige) antibodies. Activity was measured as the […] ratio and % kinase activity was normalised to the DMSO control. All kinases assays were repeated thrice per assay condition and each point on the concentration-dependent response curves represents the mean ± 1 S.D. PKA, ROCK1 and CDK2 kinase assays PKA and ROCK1 assays (Promega) were carried out according to the manufacturer's protocols and CDK2 assays were carried out with Histone H1 as substrate (1 µg per 20 µl reaction) according to our Kinase-Glo Max assay. CDK2 was expressed and purified from E. coli as previously described (10). Inhibitor Screens with hGWL-KinDom Two small-molecule compound libraries, enriched with pharmacophores known to interact with the ATP- binding site of protein kinases, were kindly provided by GlaxoSmithKline and Roche. We used this pooled library (582 compounds, 10 µM screening concentrations) in a Kinase-Glo Max luminescence kinase assay (11, 12) as part of a two-point screen against hGWL-KinDom kinase activity, using ATP at fixed concentrations of […] With STU as positive control at a […] 4A,B). […] rate = 5.8%; Supplementary Figure 4A). Molecular Docking - AutoDock AT13148 and GKI-1/2 were docked into the ATP-binding site of the hGWL-KinDom crystal structure (where the disordered C-helix was homology-modelled) using AutoDock 4.2.6. PDB format files for the ligand and kinase domain were pre-processed using AutoDock Tools 1.5.6 as described in Mohamed, et al. (13). (Figure 4 and Supplementary Figure 6A,B). Immunofluorescence and Time-lapse video microscopy 2.5 X 105 HeLa cells were plated onto glass coverslips in a 6-well plate, or 4-well µ-slides [Ibidi GmbH] were seeded with 5 X 104 cells and then transfected with Qiagen AllStars negative control or Hs_MASTL_6 siRNAs (14) using Lipofectamine RNAiMax [ThermoFisher Scientific]. Media was exchanged with fresh media the next day. 48 hours after siRNA treatment, only cells to be used for immunofluorescence (IF) were treated with nocodazole (200 ng/mL) and DMSO or GKI-1 at the indicated concentration. For IF, cells were fixed, stained with primary mouse anti-GWL and rabbit anti-p-ENSA antibodies, secondary Alexa Fluor 647-conjugated anti- rabbit and Alexa Fluor 488-conjugated anti-mouse antibodies, DAPI and mounted onto glass microscope slides using Diamond Antifade Mountant [Molecular Probes, ThermoFisher Scientific]. Quantitation of IF images was performed using the […]-Content Screening Station [Olympus Life Science] which acquired 220, 40x images per cover slip. Data were normalised against the AllStars negative control siRNA treated cells and values obtained from three biological replicates were reported as the mean ± 1 S.D. To assist with selecting mitotic cells, ScanR imaging software was utilised to gate for mitotic cells using the circularity factor and total DAPI parameters. To produce time-lapse videos, after 48 hours and cell treatment with DMSO or compound (cells were treated with GKI-1 for 4-h before image acquisition) cells plated in 4-well µ-slides were imaged every 5 minutes for 8.5 hours on an Olympus IX73 microscope, using a 40 x 0.95NA air objective, and recorded on an Orca-Flash 4.0 CMOS camera [Hamatsu]. The computer program Fiji (http://www.fiji.sc/Fiji) was used to generate videos from image sequence TIF files. Data were normalised against the AllStars negative control siRNA treated cells and […]
In general terms: Kinase-Glo measures the ATP left after a reaction by luminescence.

Some results are limits rather than exact numbers.

T3 sequence (Q96GX5 with tags, fused parts or gaps limits assumed): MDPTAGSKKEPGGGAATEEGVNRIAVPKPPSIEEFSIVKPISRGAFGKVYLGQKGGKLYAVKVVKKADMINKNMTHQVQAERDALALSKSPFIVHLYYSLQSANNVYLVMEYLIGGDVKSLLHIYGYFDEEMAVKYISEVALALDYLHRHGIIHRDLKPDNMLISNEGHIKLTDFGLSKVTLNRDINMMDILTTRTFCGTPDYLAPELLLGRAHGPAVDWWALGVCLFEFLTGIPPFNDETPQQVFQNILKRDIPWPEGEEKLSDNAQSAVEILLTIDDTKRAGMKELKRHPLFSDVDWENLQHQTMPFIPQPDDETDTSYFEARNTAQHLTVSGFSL
T2 sequence (Q13464 whole entry): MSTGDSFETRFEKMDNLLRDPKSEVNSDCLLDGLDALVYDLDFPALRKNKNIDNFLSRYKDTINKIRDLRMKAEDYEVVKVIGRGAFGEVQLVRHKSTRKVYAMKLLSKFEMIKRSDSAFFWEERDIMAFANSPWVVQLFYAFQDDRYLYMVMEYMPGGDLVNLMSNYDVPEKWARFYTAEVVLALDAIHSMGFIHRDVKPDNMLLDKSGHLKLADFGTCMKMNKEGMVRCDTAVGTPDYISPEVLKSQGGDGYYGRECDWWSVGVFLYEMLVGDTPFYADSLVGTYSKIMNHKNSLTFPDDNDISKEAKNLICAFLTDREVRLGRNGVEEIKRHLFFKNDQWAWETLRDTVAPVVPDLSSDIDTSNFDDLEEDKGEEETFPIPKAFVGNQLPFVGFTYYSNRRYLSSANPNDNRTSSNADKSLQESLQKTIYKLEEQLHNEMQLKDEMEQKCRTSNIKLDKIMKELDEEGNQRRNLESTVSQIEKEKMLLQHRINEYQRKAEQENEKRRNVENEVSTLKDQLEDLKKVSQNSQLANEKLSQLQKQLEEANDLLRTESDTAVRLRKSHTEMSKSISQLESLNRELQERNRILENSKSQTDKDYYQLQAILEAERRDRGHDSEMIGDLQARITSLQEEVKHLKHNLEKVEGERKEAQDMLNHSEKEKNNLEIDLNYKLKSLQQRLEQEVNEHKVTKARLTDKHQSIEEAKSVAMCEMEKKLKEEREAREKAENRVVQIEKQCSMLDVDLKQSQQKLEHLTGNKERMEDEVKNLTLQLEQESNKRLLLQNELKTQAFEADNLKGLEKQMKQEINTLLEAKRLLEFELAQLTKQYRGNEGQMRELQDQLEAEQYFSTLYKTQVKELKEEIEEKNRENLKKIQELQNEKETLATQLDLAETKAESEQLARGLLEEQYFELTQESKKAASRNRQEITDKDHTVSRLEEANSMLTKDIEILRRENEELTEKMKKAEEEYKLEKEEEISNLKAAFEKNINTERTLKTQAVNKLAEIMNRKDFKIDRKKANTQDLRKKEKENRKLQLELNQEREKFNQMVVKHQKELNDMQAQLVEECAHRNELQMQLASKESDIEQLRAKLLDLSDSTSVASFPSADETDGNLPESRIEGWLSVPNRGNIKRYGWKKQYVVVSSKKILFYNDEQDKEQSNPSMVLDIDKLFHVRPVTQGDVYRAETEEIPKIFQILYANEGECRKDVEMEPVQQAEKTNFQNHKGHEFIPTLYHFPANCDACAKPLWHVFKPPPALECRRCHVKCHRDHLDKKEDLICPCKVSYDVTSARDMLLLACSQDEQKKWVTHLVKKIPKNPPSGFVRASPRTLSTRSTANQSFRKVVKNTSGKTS

By IC50 is commonly meant the midpoint of a concentration-inhibition curve. A high value points to a need for much substance. On to `Clc1ccc(Nc2cccc(-c3cn[nH]c3)c2)cc1` [GKI-1, N-(4-chlorophenyl)-3-(1H-pyrazol-4-yl)aniline], for which, at PKA, the “selectivity for hGWL^FL over PKA” value is given as “greater than 8 fold” and the IC50 is over 40 µM. For the same compound, on ROCK1, the “selectivity for hGWL^FL over ROCK1” value is given as 2 fold and the IC50 came to 11.3 ± 3.4 µM.
What is called inhibition is the percentage by which the read-out fell short of the control. As for `CN(C)CC#Cc1cccc(C(=O)c2cnn(-c3ccc(F)cc3)c2N)c1` [GRI-3], at hGWL-KinDom, the inhibition at 10 µM was 39.6% and the “Rank in inhibitor screen” value came to 3.
Regarding `CCN(CC)Cc1ccc(Nc2nccc(-c3cnn4ncccc34)n2)cc1` [GRI-4], the IC50 on PKA was over 100 µM. At ROCK1, this compound yielded a half-maximal inhibitory concentration (IC50) of 21.6 ± 5.3 µM. Moreover, at hGWL-KinDom, the inhibition at 10 µM came out at 30.1% and the “Rank in inhibitor screen” value came to 8.
